The record followed here is patent US5962509A, “Dithiolylidene acetamide derivatives” (SSP Co., Ltd., priority 1997, dated 1999).

Each structure is given as a SMILES string.

The subject of this assay is ovolysozyme. As to the kind of experiment: AGE formation inhibitory action: formation of lysozyme dimer (crosslinking) on incubation with xylose, SDS-PAGE with silver staining. Format: biochemical. Conditions: 1 mg/ml ovolysozyme, 100 mM xylose, pH 7.4 phosphate-buffered saline, 37° C., 21 days; dimer (28.8 Kda) formation relative to control. The protocol: Solutions of the test compound shown in Table 1 in dimethyl sulfoxide, said solutions containing said test compound at various concentrations, were each added together with 1 mg/ml of ovolysozyme and 100 mM of xylose to a phosphate-buffered physiological saline of pH 7.4. Each reaction mixture was then incubated at 37° C. for 21 days. A portion of the reaction mixture, said portion being in a predetermined amount, was then separated by sodium lauryl sulfate-polyacrylamide gel electrophoresis (SDS-PAGE). After the electrophoresis, the gel was treated by silver staining to stain proteins. AGE formation inhibitory action of the test compound was calculated in terms of 50% inhibitory concentration by image-processing and analyzing the degree of formation of the dimer (28.8 Kda) of lysozyme (14.4 Kda) relative to that in a control, that is, a reaction mixture not added with the test compound while making use of NIH Image Ver. 1.55.

With `NN=C(N)N` [Amionoguanidine, aminoguanidine], the “AGE formation inhibitory action, 50% inhibitory concentration (IC50)” value is 30 µg/mL.
The figure for `CCCN(CCC)C(=O)C(CCC(=O)O)NC(=O)C=C1SC=CS1` (centres unmarked) [Example 1, 5-(dipropylamino)-4-((2-(1,3-dithiol-2-ylidene)acetyl)amino)-5-oxopentanoic acid] is 30 µg/mL.
